Data: ChEMBL document CHEMBL1135059, “Structure-activity relationships of novel anti-malarial agents. Part 3: N-(4-acylamino-3-benzoylphenyl)-4-propoxycinnamic acid amides” (Bioorg Med Chem Lett, 2002)
pIC50: −log10 of the molar value.

Assays:
[1] = tested on: Plasmodium falciparum; assay: microbe, parasite or virus in culture
Description: Antimalarial activity against Plasmodium falciparum Dd2 in erythrocytes

[2] = tested on: Plasmodium falciparum; assay: microbe, parasite or virus in culture; remark: listed apart in the source
Description: Antimalarial activity against Plasmodium falciparum 3D7 in erythrocytes

pIC50 [1] | pIC50 [2] | Compound
5.89 | 5.92 | CCCOc1ccc(/C=C/C(=O)Nc2ccc(NC(=O)Cc3ccc(OC)cc3)c(C(=O)c3ccccc3)c2)cc1
4.62 | 4.72 | CCCOc1ccc(/C=C/C(=O)Nc2ccc(NC(=O)Cc3ccc(-c4ccccc4)cc3)c(C(=O)c3ccccc3)c2)cc1
5.05 | 5.19 | CCCOc1ccc(/C=C/C(=O)Nc2ccc(NC(=O)c3ccccc3)c(C(=O)c3ccccc3)c2)cc1
4.64 | 4.70 | CCCOc1ccc(/C=C/C(=O)Nc2ccc(NC(=O)/C=C/c3ccc(OCCC)cc3)c(C(=O)c3ccccc3)c2)cc1
6.51 | 6.85 | CCCOc1ccc(/C=C/C(=O)Nc2ccc(NC(=O)Cc3ccc(Br)cc3)c(C(=O)c3ccccc3)c2)cc1
6.46 | 6.57 | CCCOc1ccc(/C=C/C(=O)Nc2ccc(NC(=O)Cc3ccc(Cl)cc3)c(C(=O)c3ccccc3)c2)cc1
5.55 | 5.70 | CCCOc1ccc(/C=C/C(=O)Nc2ccc(NC(=O)Cc3ccccc3Br)c(C(=O)c3ccccc3)c2)cc1
6.92 | 7.00 | CCCOc1ccc(/C=C/C(=O)Nc2ccc(NC(=O)Cc3ccc(C(F)(F)F)cc3)c(C(=O)c3ccccc3)c2)cc1
5.47 | 5.57 | CCCOc1ccc(/C=C/C(=O)Nc2ccc(NC(=O)c3cccc4ccccc34)c(C(=O)c3ccccc3)c2)cc1
7.52 | 7.54 | CCCCN(CCCC)CC(O)c1cc(Cl)cc2c1-c1ccc(Cl)cc1C2=Cc1ccc(Cl)cc1 (centres undefined) [LUMEFANTRINE]
5.62 | 5.85 | CCCOc1ccc(/C=C/C(=O)Nc2ccc(NC(=O)Cc3ccccc3C)c(C(=O)c3ccccc3)c2)cc1
5.60 | 5.72 | CCCOc1ccc(/C=C/C(=O)Nc2ccc(NC(=O)Cc3ccccc3)c(C(=O)c3ccccc3)c2)cc1

Compound | pIC50 [1] | pIC50 [2]
C=C[C@H]1CN2CC[C@H]1C[C@H]2[C@H](O)c1ccnc2ccc(OC)cc12 [QUININE] |  | 7.02
CCc1nc(N)nc(N)c1-c1ccc(Cl)cc1 [PYRIMETHAMINE] |  | 8.52
CCCOc1ccc(/C=C/C(=O)Nc2ccc(NC(=O)Cc3ccc(C)cc3)c(C(=O)c3ccccc3)c2)cc1 | 6.47 | 6.60
CC1(C)N=C(N)N=C(N)N1c1ccc(Cl)cc1 [CYCLOGUANIL] |  | 8.12
